Source: patent US20240132485A1, “HETEROCYCLIC CULLIN RING UBIQUITIN LIGASE COMPOUNDS AND USES THEREOF” (CEMM - FORSCHUNGSZENTRUM FÜR MOLEKULARE MEDIZIN GMBH, priority 2020, published 2024)

Experiments:
[1] = molecular target: T1, DDB1-CDK12/Cyclin K ternary complex (Homo sapiens, UniProt Q16531+Q9NYV4); experiment: NanoBRET fold-change assay (HaloTag_CDK12 / NanoLuc_DDB1 in HEK293T); format: cell-based; conditions: 10 μM compound, 10 minutes
T1 construct: expressed in transfected cells; host or cells: HEK293T wildtype cells, transient PEI transfection
Procedure: This assay measures the interaction/recruitment of CDK12/Cyclin K to DDB1, mechanistically validating the molecular glue pharmacology.
HEK293T wildtype cells are seeded 800 k cells/well (DMEM+10% FBS+1% PS) in a 6-well plate and allowed to attach for ˜7 hours followed by a transient transfection of 1.5 μg HaloTag_CDK12 Plasmid [Table 1] and 0.15 μg NanoLuc_DDB1 plasmid [Table 1] per well using PEI. Cells are incubated at 37° C., 5% CO2, harvested after 24 hours and resuspended in assay media (Opti-MEM Reduced serum media, no phenol red, 4% FBS, 1% PS). Cells are adjusted to 2.3×10^5 cells/ml and treated with HaloTag 618 Ligand at 100 nM or DMSO. 8000 cells are seeded per well in triplicates per compound in a white-walled 384-well plate, one negative control treated with DMSO instead of HaloTag 618 Ligand is seeded in triplicates and the 384-well plate is incubated at 37° C., 5% CO2 overnight. Compound stock solutions are prepared in Opti-MEM−/− (Opti-MEM I Reduced serum media, no phenol red) at 8× and used to treat the cells at a final concentration of 1× at 10 μM. Cells and compounds are incubated for 10 minutes at room temperature followed by addition of NanoBRET Nano-Glo substrate following manufacturer's protocols. The plate is shaken for 30 sec followed by immediate measurement of donor emission (NanoBRET Blue at 460 nm) and acceptor emission (BRET Deep Red at 647 nm) for 0.5 s.

KBM7 cells (wild-type) = experiment: KBM7 CTG EC50 assay (UBE2M wild-type); format: cell-based, human; conditions: for EC50: Homo sapiens, KBM-7, 72 h incubation, CellTiter-Glo, read-out: KBM7 CTG EC50 (UBE2M wild-type) Activity Class; for Ratio UBE2M WT to KO: ratio of anti-proliferative activity in KBM7 wild-type versus UBE2M knock-out cells (fold)
Description: (§1) This is a cell viability assay to measure the desired therapeutic effect, i.e. killing of cancer cells. The UBE2M mutant cell line has impaired activity of the Cullin-RING ligase system due to a hypomorphic mutation in UBE2M, which is required for activation of these E3 ligases. By comparison with WT cells, it is possible to estimate the contribution of Cyclin K degradation (which is reduced in UBE2M mut cells) compared to kinase inhibition of CDK12 (which is unaffected in UBE2M mut cells). Since the UBE2M mutation only reduces CRL function without fully abrogating it, this assay may slightly underestimate the effect of degradation because, at high compound concentrations, degradation may still be observed.
(§2) KBM7 cells (wild-type or harboring α hypomorphic UBE2M mutation (Mayor-Ruiz et al., 2019)) were seeded in a white opaque 384-well plate at a density of 1000 cells per well in duplicate, in full medium (IMDM+10% FBS+1% penicillin-streptomycin). Cells were treated with compounds in a 10-point titration with a dilution factor of 1:4 (range: 0 to 20 μM). After 72 h of incubation, the cell viability was determined using the CellTiter-Glo® 2.0 reactant (Promega), pre-diluted 1:4 in mQ water. The luminescence signal was measured using the multimode plate reader EnVision 2105 (Perkin Elmer).

[2] = system: KBM7 cells harboring a hypomorphic UBE2M mutation; experiment: KBM7 CTG EC50 assay (UBE2M knock-out); format: cell-based; conditions: Homo sapiens, KBM-7; 72 h incubation, CellTiter-Glo; read-out: KBM7 CTG EC50 (UBE2M knock-out) Activity Class
Description: as §1, §2

CCNK = experiment: NanoLuc-CCNK degradation assay (HEK293T_Nluc_CCNK-tagged cells); format: cell-based; conditions: 4 h incubation, HEK293T_Nluc_CCNK-tagged cells; for DC50: read-out: NanoLuc-CCNK degradation DC50 Activity Class
Procedure: The assay helps to elucidate the mechanistic explanation of the cell killing effect of the compounds of the present invention. Cyclin K is fused to a nanoluciferase, light emission is measured as a proxy of Cyclin K abundance. Potency of Cyclin K degradation and cytotoxicity of KBM7 correlate extremely well, further supporting Cyclin K degradation being the main driver of the cell killing, as opposed to inhibition of CDK12 catalytic activity.
HEK293T_Nluc_CCNK-tagged cells were engineered by integrating a nanoluciferase tag at the N-terminus of the endogenous locus of CCNK using CRISPR-Cas9 technology. Briefly, 5.5 million HEK293T cells were co-transfected by PEI with a 1:1 ratio of cutting vector (sgRNA: […]) and repair template (4 μg total plasmid) as previously described (Brand and Winter, 2019). The repair sequence comprises a cassette of puromycinR-P2A-HA-Nluc-(G4S)3 (P2A: self-cleaving peptide 2A, HA: HA-tag, (G4S)3: flexible linker), surrounded by 20-nucleotide microhomologies matching the genomic locus. After 3 days of incubation, the recombinant population was selected by puromycin treatment (2 μg/ml, 5-day treatment). A monoclonal population was obtained by limiting dilution and cassette integration validated by Sanger sequencing.
HEK293T_Nluc_CCNK-tagged cells were seeded in a white opaque 384-well plate at a density of 8000 cells per well in duplicate, in full medium (Opti-MEM I+4% FBS+1% PS). Cells were treated with compounds in a 10-point titration (range: 0 to 10 μM, 1:4 dilution). After 4 h of incubation, Nano-Glo substrate (Promega), pre-diluted in serum-free medium (Opti-MEM I), was added to the cells (1:500 final dilution). The luminescence signal was directly measured using the multimode plate reader EnVision 2105 (Perkin Elmer).

T1 sequence (Q9NYV4 whole entry): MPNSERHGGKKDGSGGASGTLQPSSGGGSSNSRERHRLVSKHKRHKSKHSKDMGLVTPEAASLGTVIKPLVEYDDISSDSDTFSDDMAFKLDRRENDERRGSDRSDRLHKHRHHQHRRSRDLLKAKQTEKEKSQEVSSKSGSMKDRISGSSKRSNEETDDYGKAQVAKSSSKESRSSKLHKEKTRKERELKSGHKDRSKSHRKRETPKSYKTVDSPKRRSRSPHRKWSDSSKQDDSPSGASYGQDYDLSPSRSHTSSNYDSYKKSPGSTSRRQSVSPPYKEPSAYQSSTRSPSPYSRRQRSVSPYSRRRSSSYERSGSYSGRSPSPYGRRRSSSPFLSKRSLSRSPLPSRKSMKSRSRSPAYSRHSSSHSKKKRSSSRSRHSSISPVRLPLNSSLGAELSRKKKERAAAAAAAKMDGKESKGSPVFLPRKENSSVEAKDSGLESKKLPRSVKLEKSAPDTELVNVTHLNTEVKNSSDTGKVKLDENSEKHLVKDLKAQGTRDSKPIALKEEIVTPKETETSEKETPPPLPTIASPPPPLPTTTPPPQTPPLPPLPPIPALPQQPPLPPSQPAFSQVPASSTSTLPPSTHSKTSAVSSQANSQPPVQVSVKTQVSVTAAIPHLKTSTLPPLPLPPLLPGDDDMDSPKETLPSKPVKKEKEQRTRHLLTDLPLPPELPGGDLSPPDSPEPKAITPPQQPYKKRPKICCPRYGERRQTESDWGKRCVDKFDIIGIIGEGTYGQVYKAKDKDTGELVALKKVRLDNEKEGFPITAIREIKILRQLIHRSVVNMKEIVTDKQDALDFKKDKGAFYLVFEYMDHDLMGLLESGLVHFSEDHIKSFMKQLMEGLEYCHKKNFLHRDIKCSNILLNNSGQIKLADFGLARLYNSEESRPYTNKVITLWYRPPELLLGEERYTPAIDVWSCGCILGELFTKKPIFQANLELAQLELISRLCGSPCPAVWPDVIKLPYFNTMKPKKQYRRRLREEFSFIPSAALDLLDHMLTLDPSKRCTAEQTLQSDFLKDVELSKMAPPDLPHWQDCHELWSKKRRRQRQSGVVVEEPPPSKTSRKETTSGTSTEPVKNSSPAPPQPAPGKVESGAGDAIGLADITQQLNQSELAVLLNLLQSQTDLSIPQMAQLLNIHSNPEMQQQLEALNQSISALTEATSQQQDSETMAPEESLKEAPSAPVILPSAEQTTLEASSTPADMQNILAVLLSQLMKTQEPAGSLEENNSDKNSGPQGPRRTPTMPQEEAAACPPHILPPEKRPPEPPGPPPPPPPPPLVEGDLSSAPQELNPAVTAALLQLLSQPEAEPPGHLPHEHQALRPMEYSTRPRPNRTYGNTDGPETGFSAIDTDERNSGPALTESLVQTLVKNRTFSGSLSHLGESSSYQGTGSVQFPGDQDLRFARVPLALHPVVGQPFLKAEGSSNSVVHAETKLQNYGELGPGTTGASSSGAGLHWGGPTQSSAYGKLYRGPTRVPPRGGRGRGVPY
T1 sequence (Q16531 whole entry): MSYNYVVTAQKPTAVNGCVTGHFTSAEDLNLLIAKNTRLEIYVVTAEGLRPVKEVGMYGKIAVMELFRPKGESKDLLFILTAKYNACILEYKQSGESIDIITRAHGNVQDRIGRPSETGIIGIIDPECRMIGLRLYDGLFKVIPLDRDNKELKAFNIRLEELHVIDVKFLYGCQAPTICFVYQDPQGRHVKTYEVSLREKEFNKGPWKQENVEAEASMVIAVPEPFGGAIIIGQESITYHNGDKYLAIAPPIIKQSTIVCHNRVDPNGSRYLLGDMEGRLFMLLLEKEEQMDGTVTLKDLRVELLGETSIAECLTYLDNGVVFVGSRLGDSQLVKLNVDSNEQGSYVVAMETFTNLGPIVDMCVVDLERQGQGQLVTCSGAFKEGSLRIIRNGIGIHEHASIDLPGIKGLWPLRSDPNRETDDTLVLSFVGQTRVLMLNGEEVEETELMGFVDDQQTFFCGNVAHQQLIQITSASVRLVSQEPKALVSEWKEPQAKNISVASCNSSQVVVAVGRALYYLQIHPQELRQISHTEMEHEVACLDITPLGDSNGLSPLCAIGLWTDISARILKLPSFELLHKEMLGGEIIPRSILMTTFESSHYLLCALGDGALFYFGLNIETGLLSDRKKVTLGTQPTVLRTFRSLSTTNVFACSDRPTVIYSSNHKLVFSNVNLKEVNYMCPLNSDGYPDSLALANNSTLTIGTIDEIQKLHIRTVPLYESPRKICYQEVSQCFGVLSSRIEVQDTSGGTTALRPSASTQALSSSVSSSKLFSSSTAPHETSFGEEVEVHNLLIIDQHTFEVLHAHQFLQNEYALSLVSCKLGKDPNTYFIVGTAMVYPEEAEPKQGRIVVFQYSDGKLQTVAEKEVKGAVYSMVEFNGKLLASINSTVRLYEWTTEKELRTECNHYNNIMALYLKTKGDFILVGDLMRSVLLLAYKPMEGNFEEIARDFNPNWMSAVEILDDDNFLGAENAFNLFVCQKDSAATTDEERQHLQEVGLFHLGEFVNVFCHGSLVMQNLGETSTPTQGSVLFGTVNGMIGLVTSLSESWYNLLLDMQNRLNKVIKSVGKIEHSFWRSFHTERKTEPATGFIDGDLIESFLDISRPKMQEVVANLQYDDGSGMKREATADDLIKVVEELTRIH
T1 sequence (O75909 whole entry partner): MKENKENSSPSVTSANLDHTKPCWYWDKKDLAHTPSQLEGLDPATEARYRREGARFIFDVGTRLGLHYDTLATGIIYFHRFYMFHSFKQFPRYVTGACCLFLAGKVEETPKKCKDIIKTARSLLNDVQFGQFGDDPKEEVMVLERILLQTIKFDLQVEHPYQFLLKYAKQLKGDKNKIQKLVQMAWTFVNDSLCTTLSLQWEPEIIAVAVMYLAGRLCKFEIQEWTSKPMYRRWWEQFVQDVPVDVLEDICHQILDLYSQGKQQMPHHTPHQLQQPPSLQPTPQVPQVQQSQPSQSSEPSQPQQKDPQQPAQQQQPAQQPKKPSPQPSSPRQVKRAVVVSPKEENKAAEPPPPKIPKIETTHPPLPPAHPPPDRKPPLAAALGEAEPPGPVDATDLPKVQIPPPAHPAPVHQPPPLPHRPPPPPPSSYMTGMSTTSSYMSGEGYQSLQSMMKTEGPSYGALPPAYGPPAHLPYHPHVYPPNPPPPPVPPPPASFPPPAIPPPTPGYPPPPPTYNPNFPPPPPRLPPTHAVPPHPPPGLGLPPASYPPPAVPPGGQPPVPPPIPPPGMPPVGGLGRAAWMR

| SMILES | NanoBRET fold-change Activity Class [1] | EC50 (KBM7 cells (wild-type)) | Ratio UBE2M WT to KO (KBM7 cells (wild-type)) | EC50 [2] | DC50 (CCNK) | NanoLuc-CCNK degradation DC50 Activity Class (CCNK) |
| --- | --- | --- | --- | --- | --- | --- |
| Cc1cccn2cc(CC(=O)Nc3ncc(C(F)(F)F)s3)nc12 [Example 3-7, 2-(8-methylimidazo[1,2-a]pyridin-2-yl)-N-(5-(trifluoromethyl)thiazol-2-yl)acetamide] | B (3-4 fold increase) | ≤ 0.25 µM | 42.4 | 1 to 10 µM | > 10 µM |  |
| CC(C)c1ccc(NC(=O)Cc2cn3cc(F)ccc3n2)nc1 [Example 3-61, 2-(6-fluoroimidazo[1,2-a]pyridin-2-yl)-N-(5-isopropylpyridin-2-yl)acetamide] | A (greater than 4-fold increase) | ≤ 0.25 µM | >20 | > 10 µM |  | B (0.50 μM≤DC50<0.10 μM) |
| O=C(Nc1ncc(C(F)(F)F)s1)C1CC(=O)N(c2ccc3c(c2)CCC3)C1 (stereo not shown) [Example 3-24, 1-(2,3-dihydro-1H-inden-5-yl)-5-oxo-N-(5-(trifluoromethyl)thiazol-2-yl)pyrrolidine-3-carboxamide] | B (3-4 fold increase) | ≤ 0.25 µM | 23.8 | 1 to 10 µM |  | B (0.50 μM≤DC50<0.10 μM) |
| O=C(Nc1ncc(C(F)(F)F)s1)C1CC(=O)N(c2ccc(F)c(F)c2)C1 (stereo not shown) [Example 3-23, 1-(3,4-difluorophenyl)-5-oxo-N-(5-(trifluoromethyl)thiazol-2-yl)pyrrolidine-3-carboxamide] | B (3-4 fold increase) | ≤ 0.25 µM | >10 | > 10 µM | > 10 µM |  |
| O=C(Cc1cc2ccccc2o1)Nc1ncc(C(F)(F)F)s1 [Example 3-41, 2-(benzofuran-2-yl)-N-(5-(trifluoromethyl)thiazol-2-yl)acetamide] | C (2-3 fold increase) | 1 to 10 µM | >2 | > 10 µM |  | D (10 μM≤DC50<1.0 μM) |
| O=C(Cc1cccc2ncccc12)Nc1ncc(C(F)(F)F)s1 [Example 3-13, 2-(quinolin-5-yl)-N-(5-(trifluoromethyl)thiazol-2-yl)acetamide] | B (3-4 fold increase) | 1 to 10 µM | >4 | > 10 µM | > 10 µM |  |
| Cc1ccc2c(CC(=O)Nc3cc(C4CC4)[nH]n3)coc2c1C [Example 3-46, N-(5-cyclopropyl-1H-pyrazol-3-yl)-2-(6,7-dimethylbenzofuran-3-yl)acetamide] | B (3-4 fold increase) | 0.5 to 1 µM | >10 | > 10 µM |  | D (10 μM≤DC50<1.0 μM) |
| Cc1ccc2ncn(CC(=O)Nc3ncc(C(F)(F)F)s3)c2c1 [Example 3-15, 2-(6-methyl-1H-benzo[d]imidazol-1-yl)-N-(5-(trifluoromethyl)thiazol-2-yl)acetamide] | D (1-2 fold increase) | 1 to 10 µM | >4 | > 10 µM | > 10 µM |  |
| O=C(Cc1cccc2cnccc12)Nc1ncc(C(F)(F)F)s1 [Example 3-30, 2-(isoquinolin-5-yl)-N-(5-(trifluoromethyl)thiazol-2-yl)acetamide] | C (2-3 fold increase) | > 10 µM | >1 | > 10 µM | > 10 µM |  |
| Cc1ccc2c(CC(=O)Nc3cc(Cl)[nH]n3)coc2c1C [Example 3-49, N-(5-chloro-1H-pyrazol-3-yl)-2-(6,7-dimethylbenzofuran-3-yl)acetamide] | B (3-4 fold increase) | ≤ 0.25 µM | 37.3 | 1 to 10 µM |  | B (0.50 μM≤DC50<0.10 μM) |
| O=C(Nc1ncc(C(F)(F)F)s1)C1CC(=O)N(c2ccc(F)cc2)C1 (stereo not shown) [Example 3-26, 1-(4-fluorophenyl)-5-oxo-N-(5-(trifluoromethyl)thiazol-2-yl)pyrrolidine-3-carboxamide] | C (2-3 fold increase) | 1 to 10 µM | >5 | > 10 µM | > 10 µM |  |
| O=C(Cc1cn2cc(F)ccc2n1)Nc1cc(Br)[nH]n1 [Example 3-58, N-(5-bromo-1H-pyrazol-3-yl)-2-(6-fluoroimidazo[1,2-a]pyridin-2-yl)acetamide] | C (2-3 fold increase) | ≤ 0.25 µM | >10 | > 10 µM | > 10 µM |  |
| O=C(Cc1ccc2cnccc2c1)Nc1ncc(C(F)(F)F)s1 [Example 3-31, 2-(isoquinolin-6-yl)-N-(5-(trifluoromethyl)thiazol-2-yl)acetamide] | C (2-3 fold increase) | 1 to 10 µM | >4 | > 10 µM | > 10 µM |  |
| O=C(Nc1ncc(C(F)(F)F)s1)C1CC(=O)N(c2ccccc2Cl)C1 (stereo not shown) [Example 3-20, 1-(2-chlorophenyl)-5-oxo-N-(5-(trifluoromethyl)thiazol-2-yl)pyrrolidine-3-carboxamide] | C (2-3 fold increase) | 0.25 to 0.5 µM | >10 | > 10 µM | > 10 µM |  |
| O=C(CCn1cnc2ccc(Br)cc2c1=O)Nc1ncc(C(F)(F)F)s1 [Example 3-65, 3-(6-bromo-4-oxoquinazolin-3(4H)-yl)-N-(5-(trifluoromethyl)thiazol-2-yl)propanamide] | B (3-4 fold increase) | 0.5 to 1 µM | >13 | > 10 µM |  | B (0.50 μM≤DC50<0.10 μM) |
| O=C(Cc1cncc2ccccc12)Nc1ncc(C(F)(F)F)s1 [Example 3-34, 2-(isoquinolin-4-yl)-N-(5-(trifluoromethyl)thiazol-2-yl)acetamide] | C (2-3 fold increase) | 1 to 10 µM | >3 | > 10 µM | > 10 µM |  |
| Cc1ccc2c(CC(=O)Nc3ccc(Cl)cn3)coc2c1C [Example 3-55, N-(5-chloropyridin-2-yl)-2-(6,7-dimethylbenzofuran-3-yl)acetamide] | B (3-4 fold increase) | 0.25 to 0.5 µM | 9.2 | 1 to 10 µM |  | C (1.0 μM≤DC50<0.50 μM) |
